Measured values published in publication PMC10221314 (Pharmaceuticals, 2023).

Legend:
LX-2 cells [1] = test: mRNA expression of liver fibrosis marker genes in TGFβ1-induced LX-2 cells; assay type: cell-based; details: 20 μM, induced by 2 ng·mL^−1 TGFβ1, 24 h
Method: (§1) Cells and liver tissue samples were subjected to RNA extraction and purification, followed by reverse transcription of equal amounts of total RNA into […] using a Transcriptor First Strand cDNA Synthesis Kit (Roche). The relative expression levels of the target gene were determined using TaqMan probe/primers with an ABI Q3 quantitative real-time PCR system, while GAPDH/Gapdh was utilized as an internal control for mRNA expression. The fold change in the expression of the target mRNA was calculated using Equation 2^−ΔΔCt.
(§2) (A–E) The LX-2 cells underwent a 24 h treatment of 2 ng·mL^−1 TGFβ1, with or without varying concentrations of candidate compounds, following FBS starvation. […] GAPDH/GAPDH was used as the loading control. The mean ± SD values were obtained from three independent assays. […] ANOVA was followed by Tukey’s test for statistical analysis.

HFD mice = test: CDAHFD diet-induced NASH mouse model; assay type: in vivo
Method: as §1
A total of 24 C57BL/6N mice were randomly assigned to three groups, including Ctrl., Model-N.S., and Model-10b-100 mg·kg^−1, with eight animals per group. The randomization process was performed using Research Randomizer (RRID: SCR_008563). CDHFD (D09100310) diet was obtained from Research Diets Inc. Sixteen mice were fed the CDHFD diet for 12 weeks to induce NASH, with eight mice receiving a normal diet as a control. At the beginning of the 13th week, the mice in the model group were randomly assigned into two groups and given daily gavages of either normal saline (Model-N.S. group) or 100 mg·kg^−1 of compound 10b suspended in 0.5% sodium carboxymethylcellulose solution (Model-10b groups) for four weeks. Daily bodyweights were recorded, and blood samples were collected from the abdominal aorta following an overnight fast. Afterward, the mice were euthanized using isoflurane. Liver tissue samples were obtained, and some were treated with 4% paraformaldehyde to prepare them for future histological analysis, while others were kept at −80 °C for later examination. Maximum liver lobule was collected for each mouse.
Kits purchased from Zhongsheng Beikong Biotechnology (Beijing, China) were used to measure the serum concentrations of alanine aminotransferase, aspartate aminotransferase, alkaline phosphatase, γ-glutamyl transpeptidase, total cholesterol, total triglyceride, low-density lipoprotein (LDL), high-density lipoprotein (HDL) cholesterol, lactate dehydrogenase, total bile acid, and total bilirubin. The samples were analyzed on a Hitachi 7100 Analyzer.
The liver tissue was fixed with formalin, embedded in paraffin, and sectioned. The sections were stained with H&E, Oil Red, Masson’s, and Sirius Red. Liver necrosis, inflammation, bile duct proliferation, hepatic steatosis, and lobule inflammation were evaluated on a scale of 1–5 in a blinded manner using a Leica DM1000 microscope. Five randomly selected manifold area fields of vision were used to quantify the red area in each field of vision (eight in each group), which was counted using ImageJ software. The liver hydroxyproline concentration was determined using kits from Nanjing, China, in accordance with the manufacturer’s instructions.
The mouse liver samples were cut into small pieces of 50 mg size and homogenized in TG, TC, and FC extracts using a high-speed tissue homogenizer. The TG, TC, and FC were then extracted from the tissue, and their contents in the sample were calculated using the protein content for calibration. The determination process utilized the test kit for TC, TG, and FC of high-fat samples from Applygen Technologies Inc. (E1025, E1026, E1027).

LX-2 cells [2] = test: Western blot of liver-fibrosis-associated proteins in LX-2 cells and HSC-T6 cells; assay type: cell-based; details: 20 μM
Method: The total protein concentration in cell and liver tissue lysates was determined using a BCA kit (Beyotime Biotechnology, P0009). Following immune precipitation with appropriate antibodies overnight at 4 °C and incubation with Protein A/G Plus-agarose (Santa Cruz Biotechnology, sc-2003), immunocomplexes or lysates were subjected to SDS-PAGE gel electrophoresis and transferred onto PVDF membranes. Target proteins were detected using specific primary antibodies and an appropriate secondary antibody, with electrochemiluminescence carried out according to the manufacturer’s instructions with a Tanon 5200 imaging system (Shanghai, China). The internal control utilized was GADPH.
as §2

FXR downstream genes = test: mRNA expression of FXR downstream genes in HepG2 cells (qRT-PCR); assay type: cell-based; details: 10 μM and 1 μM, 24 h
Method: as §1
(A) Relative mRNA level of SHP; (B) Relative mRNA level of BSEP; (C) Relative mRNA level of CYP7A1; (D) Relative mRNA level of SREBP1c; (E) Relative mRNA level of PEPCK; (F) Expression level of G6Pase. HepG2 cells were seeded in a 6-well plate and treated with DMSO and varying concentrations of compound 10b for 24 h with or without 50 μM of 1. The mRNA levels of SHP, BSEP, CYP7A1, SREBP1c, PEPCK, and G6Pase were quantified and normalized to β-actin expression.

[3] = HFD (CDAHFD) mice, 100 mg·kg-1 gavage daily, four weeks
[4] = in the presence and absence of compound 1 (50 μM)

Q: What does the source list for `CC1(C)CCC2(C(=O)O)CCC3(C)C(C(OC(=O)CCC(NC(=O)OC(C)(C)C)C(=O)OC(C)(C)C)CC4C5(C)CCC(O)C(C)(C)C5CCC43C)C2C1` [Compound 10b, 3β-hydroxy-12β-(4′-((tert-butoxycarbonyl)amide)-5′-(tert-butoxy)-L-glutamte)oxy-13H-olean-28-oic acid]?
A: mRNA expression of ACTA2 (LX-2 cells [1]): significantly decrease; mRNA expression of COL1A1 (LX-2 cells [1]): significantly decrease; mRNA expression of CTGF (LX-2 cells [1]): significantly decrease; mRNA expression of ITGAV (LX-2 cells [1]): significantly decrease; mRNA expression of TGFb1 (LX-2 cells [1]): significantly decrease; hepatic lobular inflammation (NAS score) (HFD mice; CDAHFD mice, 100 mg·kg-1): improved; intrahepatic steatosis (NAS score) (HFD mice; CDAHFD mice, 100 mg·kg-1): improved; liver FC (free cholesterol) (HFD mice; CDAHFD mice, 100 mg·kg-1): no significant effect; liver TC (HFD mice; CDAHFD mice, 100 mg·kg-1): no significant effect; total triglyceride content in the liver (HFD mice; CDAHFD mice, 100 mg·kg-1): reduced; Serum ALP (HFD mice; [3]): 189.71±29.41 U·L-1; Serum ALT (HFD mice; [3]): 325.43±88.40 U·L-1; Serum AST (HFD mice; [3]): 401.86±91.05 U·L-1; Serum CHO (HFD mice; [3]): 2.36 ± 0.44 mmol/L; Serum Glu (HFD mice; [3]): 5.71 ± 1.25 mmol/L; Serum HDL (HFD mice; [3]): 1.22 ± 0.33 mmol/L; Serum LDH (HFD mice; [3]): 1326.57±264.54 U·L-1; Serum LDL (HFD mice; [3]): 0.23 ± 0.04 mmol/L; Serum TBA (HFD mice; [3]): 23.46 ± 12.81 µmol/L; Serum TBiL (HFD mice; [3]): 3.81 ± 0.92 µmol/L; mRNA expression of liver fibrosis-related genes in liver (HFD mice; NASH mouse model, 100 mg·kg-1): inhibit; content of protein TGFβ1 (LX-2 cells [2]): reduced; content of protein TIMP1 (LX-2 cells [2]): reduced; content of protein a-SMA (LX-2 cells [2]): reduced; expression of G6Pase (mRNA) (FXR downstream genes): inhibited the expression; expression of PEPCK (mRNA) (FXR downstream genes): inhibited the expression; expression of BSEP (mRNA) (FXR downstream genes; [4]): inhibit; expression of CYP7A1 (mRNA) (FXR downstream genes; [4]): increasing the expression; expression of SHP (mRNA) (FXR downstream genes; [4]): inhibit; expression of SREBP1c (mRNA) (FXR downstream genes; [4]): inhibit
